In patent US5155127A, “N-(substituted aryl)-N'-(substituted alkoxy)-ureas and thioureas as antihypercholesterolemic and antiatherosclerotic agents” (priority 1990, dated 1992):

Target: T1, acyl-CoA:cholesterol acyltransferase (ACAT) (Oryctolagus cuniculus, UniProt G1SFD9)
T1 construct: tissue preparation containing rabbit intestinal microsomes; from tissue; host or cells: rabbit intestinal microsomes
T1 sequence (G1SFD9 1-524): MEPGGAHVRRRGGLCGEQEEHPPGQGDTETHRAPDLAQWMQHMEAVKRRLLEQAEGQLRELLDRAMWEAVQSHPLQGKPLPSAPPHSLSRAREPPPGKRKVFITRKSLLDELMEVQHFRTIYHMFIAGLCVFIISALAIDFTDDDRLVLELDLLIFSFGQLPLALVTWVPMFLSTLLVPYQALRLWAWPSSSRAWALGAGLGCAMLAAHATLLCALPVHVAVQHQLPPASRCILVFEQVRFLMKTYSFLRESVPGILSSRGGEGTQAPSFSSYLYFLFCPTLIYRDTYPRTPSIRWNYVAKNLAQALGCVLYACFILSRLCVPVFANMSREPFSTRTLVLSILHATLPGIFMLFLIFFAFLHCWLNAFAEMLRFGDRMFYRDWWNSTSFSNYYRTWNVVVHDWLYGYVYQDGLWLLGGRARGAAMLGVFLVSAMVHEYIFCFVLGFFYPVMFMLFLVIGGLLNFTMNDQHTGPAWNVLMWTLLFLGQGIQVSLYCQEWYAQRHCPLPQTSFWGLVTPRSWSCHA
Assay: in vitro ACAT inhibition: radio-labeled cholesterol oleate formation from radio-labeled oleic acid in rabbit intestinal microsomes
Format: biochemical
Settings: read-out: IC50 (concentration of test compound required to inhibit cholesteryl oleate formation to 50% of control)
Procedure: The ability of representative compounds of the present invention to inhibit ACAT was measured using an in vitro test more fully described in Field, F. J. and Salome, R. G., Biochimica et Biophysica Acta, volume 712, pages 557-570 (1982). The test assesses the ability of a test compound to inhibit the acylation of cholesterol by oleic acid by measuring the amount of radio-labeled cholesterol oleate formed from radio-labeled oleic acid in a tissue preparation containing rabbit intestinal microsomes. The data in Table I is expressed as IC50 values, i.e., the concentration of test compound required to inhibit cholesteryl oleate formation to 50% of control.

IC50 | Structure (SMILES)
30 nM | CC(C)c1cccc(C(C)C)c1NC(=O)NOC(c1ccccc1)c1ccccc1 [Example 1, N-[2,6-Bis(1-methylethyl)phenyl]-N'-(diphenylmethoxy)-urea]
53 nM | CC(C)c1cccc(C(C)C)c1NC(=O)NOC(c1ccccc1)(c1ccccc1)c1ccccc1 [Example 2, N-[2,6-Bis(1-methylethyl)phenyl]-N'-(triphenylmethoxy)urea]
92 nM | CC(C)c1cccc(C(C)C)c1NC(=O)NOCc1cccc2ccccc12 [Example 3, N-[2,6-Bis(1-methylethyl)phenyl]-N'-(1-naphthalenylmethoxy)-urea]
